In article PMC10385824, “Antiproliferative and Tubulin-Destabilising Effects of 3-(Prop-1-en-2-yl)azetidin-2-Ones and Related Compounds in MCF-7 and MDA-MB-231 Breast Cancer Cells” (Pharmaceuticals, 2023):
Where two headings read alike, the source gives them in different places.

What was measured:
[1] = test system: MCF-7 human breast cancer cells; settings: MCF-7; for IC50: read-out: Antiproliferative Activity IC50, 72 h, eight concentrations (0.001–50 mM [sic]), mean ± SEM, Table 5
[2] = test system: MCF-7 human breast cancer cells; experiment: cells
[3] = test system: purified bovine brain tubulin; experiment: Tubulin polymerization assay (light scattering, BK006 kit); assay type: biochemical; settings: compound at 10 μM; for Fold Reduction in Vmax: relative to vehicle
Experimental: Tubulin polymerization was monitored using the BK006 kit obtained from Cytoskeleton Inc. (Denver, CO, USA). The values reported represent the average values determined from two independent assays. Purified bovine brain tubulin (>99%, 3 mg/mL) in buffer containing PIPES (80 mM, pH 6.9), EGTA (0.5 mM), MgCl2 (2 mM), GTP (1 mM) and glycerol (10%) was incubated at 37 °C in vehicle (1% DMSO or EtOH (v/v) in dH2O) or with compounds 9h, 9q, 9s, 10h, 10p, 10r, 11h, 11p, 11r, 17f (all at 10 µM concentration); CA-4 (10 μM) was used as control. In this assay, light scattering is related to the concentration of polymerised microtubules produced. Tubulin assembly was monitored turbidimetrically at 340 nm at 37 °C in a Spectramax 340 PC spectrophotometer (Molecular Devices, Sunnyvale, CA, USA).

MDA-MB-231/ATCC = experiment: NCI-60 SRB screen, breast cancer; assay type: cell-based, human; settings: Homo sapiens, MDA-MB-231, 48 h, read-out: Antiproliferative Activity IC50
[4] = test system: NCI 60 human cancer cell line panel; experiment: NCI 60 cell line screen (SRB), panel values; settings: Homo sapiens, 60 cell
[5] = test system: MDA-MB-231 human breast cancer cells; experiment: Alamar Blue cell viability (antiproliferative) assay; assay type: cell-based; settings: 72 h, eight concentrations 0.001-50 μM, mean ± SEM, read-out: Antiproliferative Activity IC50
[6] = MCF7, 72 h, read-out: Antiproliferative Activity IC50, MCF-7, 72 h, eight concentrations 1–50 μM, mean ± SEM, Table 2
[7] = MCF7, 72 h, read-out: Antiproliferative Activity IC50, MCF-7, 72 h, eight concentrations (0.001–50 mM [sic]), mean ± SEM, Table 5
[8] = MCF7, read-out: Antiproliferative Activity IC50
[9] = MCF7, read-out: Antiproliferative Activity IC50, MCF-7, eight concentrations 0.001–50 μM, mean ± SEM, Table 4
[10] = MCF7, read-out: Antiproliferative Activity IC50, MCF-7, eight concentrations 0.001–50 μM, mean ± SEM, Table 3

## C=C(C)C1C(=O)N(c2cc(OC)c(OC)c(OC)c2)C1c1ccc(Br)cc1 (stereo not drawn) [9c, 4-(4-Bromophenyl)-1-(3,4,5-trimethoxyphenyl)-3-(prop-1-en-2-yl)azetidine-2-one]
[1]
  antiproliferative activity in words: sub-micromolar
other
  melting point: 130 to 131 °C

## C=C(C)C1C(=O)N(c2cc(OC)c(OC)c(OC)c2)C1c1ccc(N(C)C)cc1 (stereo not drawn) [9e, 4-(4-Dimethylaminophenyl)-1-(3,4,5-trimethoxyphenyl)-3-(prop-1-en-2-yl)azetidine-2-one]
[1]
  antiproliferative activity in words: sub-micromolar
[2]; [6]
  IC50: 5950 ± 920 nM

## CCOC(=O)CC1C(=O)N(c2cc(OC)c(OC)c(OC)c2)C1c1ccc(OC)cc1 (stereo not drawn) [17f, Ethyl-2-(1-(3,4,5-trimethoxyphenyl)-2-(4-methoxyphenyl)-4-oxoazetidin-3-yl)acetate]
[3]; 37 °C, 340 nm
  Vmax: 0.0038 mOD/min
[3]
  Fold Reduction in Vmax: 2.2
[2]; [7]
  IC50: 35 ± 3 nM

## C=C/C=C/C1C(=O)N(c2cc(OC)c(OC)c(OC)c2)C1c1ccc(OC)c(O)c1 (stereo not drawn) [11p, (E)-3-(Buta-1,3-dien-1-yl)-4-(3-hydroxy-4-methoxyphenyl)-1-(3,4,5-trimethoxyphenyl)azetidin-2-one]
MDA-MB-231/ATCC
  IC50: 113 nM
[4]; read-out: Mean GI50, mean over all NCI 60 cell lines
  GI50: 288 nM
[4]; read-out: Mean LC50
  CC50: 91200 nM
[4]; read-out: Mean TGI
  IC (TGI (total growth inhibition)): 31600 nM
[3]
  Fold Reduction in Vmax: 1.1
[2]; [8]
  IC50: 61 ± 8 nM

## COc1ccc(C2C(C3C=CCC4C(=O)OC(=O)C43)C(=O)N2c2cc(OC)c(OC)c(OC)c2)cc1O (stereo not drawn) [21d, 3a,4,7,7a-Tetrahydro-4-(2-(3-hydroxy-4-methoxyphenyl)-1-(3,4,5-trimethoxyphenyl)-4-oxoazetidin-3-yl)isobenzofuran-1,3-dione]
[2]; [7]
  IC50: 91100 ± 14500 nM
other
  melting point: 224 to 225 °C

## C=C/C=C/C1C(=O)N(c2cc(OC)c(OC)c(OC)c2)C1c1ccc(Cl)cc1 (stereo not drawn) [11b, (E)-3-(Buta-1,3-dien-1-yl)-4-(4-chlorophenyl)-1-(3,4,5-trimethoxyphenyl)azetidin-2-one]
[2]; [9]
  IC50: 315 ± 40 nM
other
  melting point: 145 to 147 °C

## C=C/C=C/C1C(=O)N(c2cc(OC)c(OC)c(OC)c2)C1c1ccc(Br)cc1 (stereo not drawn) [11c, (E)-4-(4-Bromophenyl)-3-(buta-1,3-dien-1-yl)-1-(3,4,5-trimethoxyphenyl)azetidin-2-one]
[2]; [9]
  IC50: 428 ± 42 nM
other
  melting point: 153 to 155 °C

## COC(=O)C1=C(C(=O)OC)C(C2C(=O)N(c3cc(OC)c(OC)c(OC)c3)C2c2cccc3ccccc23)CC=C1 (stereo not drawn) [22a, Dimethyl-6-(1-(3,4,5-trimethoxyphenyl)-2-(naphthalen-1-yl)-4-oxoazetidin-3-yl)cyclohexa-1,3-diene-1,2-dicarboxylate]
[1]
  IC50: 142000 ± 20300 nM

## COc1cc(N2C(=O)C(C3C=CCC4C(=O)OC(=O)C43)C2c2ccc(Br)cc2)cc(OC)c1OC (stereo not drawn) [21b, 4-(2-(4-Bromophenyl)-1-(3,4,5-trimethoxyphenyl)-4-oxoazetidin-3-yl)-3a,4,7,7a-tetrahydroisobenzofuran-1,3-dione]
[2]; [7]
  IC50: 96200 ± 13500 nM
other
  melting point: 242 to 244 °C

## COc1cc(N2C(=O)C(C3C=CCC4C(=O)N(c5ccccc5)C(=O)C43)C2c2ccc(Cl)cc2)cc(OC)c1OC (stereo not drawn) [21a, 4-(2-(4-Chlorophenyl)-1-(3,4,5-trimethoxyphenyl)-4-oxoazetidin-3-yl)-3a,4,7,7a-tetrahydro-2-phenyl-2H-isoindole-1,3-dione]
[2]; [7]
  IC50: 106000 ± 13900 nM
other
  melting point: 208 to 210 °C

## C=C(C)C1C(=O)N(c2ccc(OCC)cc2)C1c1cc(OC)c(OC)c(OC)c1 (stereo not drawn) [9u, 1-(4-Ethoxyphenyl)-3-(prop-1-en-2-yl)-4-(3,4,5-trimethoxyphenyl)azetidin-2-one]
[1]
  antiproliferative activity in words: minimal
other
  melting point: 106 to 108 °C

## C=C(C)C1C(=O)N(c2cc(OC)c(OC)c(OC)c2)C1c1ccccc1 (stereo not drawn) [9f, 4-Phenyl-1-(3,4,5-trimethoxyphenyl)-3-(prop-1-en-2-yl)azetidin-2-one]
[2]; [6]
  IC50: 494 ± 140 nM
other
  melting point: 108 to 109 °C

## C=CC=CC1C(=O)N(c2cc(OC)c(OC)c(OC)c2)C1c1ccc(C)cc1 (stereo not drawn) [11g, 3-(Buta-1,3-dienyl)-4-p-tolyl-1-(3,4,5-trimethoxyphenyl)azetidin-2-one]
[2]; [9]
  IC50: 200 ± 40 nM
other
  melting point: 88 to 89 °C
[5]
  IC50: 160 ± 14 nM

## C=CCC1C(=O)N(c2cc(OC)c(OC)c(OC)c2)C1c1ccc(OCc2ccccc2)cc1 (stereo not drawn) [10l, 3-Allyl-4-(4-benzyloxyphenyl)-1-(3,4,5-trimethoxyphenyl)azetidin-2-one]
[2]; [10]
  IC50: 7390 ± 670 nM
other
  melting point: 140 to 141 °C
[5]
  IC50: 486 ± 60 nM

## C=C/C=C/C1C(=O)N(c2cc(OC)c(OC)c(OC)c2)C1c1ccc(OC)c([N+](=O)[O-])c1 (stereo not drawn) [11q, (E)-3-(Buta-1,3-dien-1-yl)-4-(4-methoxy-3-nitrophenyl)-1-(3,4,5-trimethoxyphenyl)azetidin-2-one]
[2]; [9]
  IC50: 511 ± 90 nM
other
  melting point: 88 to 90 °C

## C=CCC1C(=O)N(c2cc(OC)c(OC)c(OC)c2)C1c1ccc(F)cc1 (stereo not drawn) [10d, 3-Allyl-4-(4-fluorophenyl)-1-(3,4,5-trimethoxyphenyl) azetidin-2-one]
[2]; [8]
  IC50: 33800 ± 9040 nM
other
  melting point: 89 to 90 °C

## C=CC[C@@H]1C(=O)N(c2cc(OC)c(OC)c(OC)c2)[C@H]1c1ccc(C)cc1 (relative stereo) [10g, 3-Allyl-4-p-tolyl-1-olyl-1-(3,4,5-trimethoxyphenyl)azetidin-2-one]
[2]; [10]
  IC50: 199 ± 30 nM
[5]
  IC50: 377 ± 60 nM

## C=C/C=C/C1C(=O)N(c2cc(OC)c(OC)c(OC)c2)C1c1ccccc1 (stereo not drawn) [11f, (E)-3-(Buta-1,3-dien-1-yl)-4-phenyl-1-(3,4,5-trimethoxyphenyl)azetidin-2-one]
[2]; [9]
  IC50: 19400 ± 4030 nM
other
  melting point: 90 to 93 °C

## CCCCOc1ccc(C2C(C3C=CCC4C(=O)N(c5ccccc5)C(=O)C43)C(=O)N2c2cc(OC)c(OC)c(OC)c2)cc1 (stereo not drawn) [21c, 4-(2-(4-Butoxyphenyl)-4-oxo-1-(3,4,5-trimethoxyphenyl)azetidin-3-yl)-2-phenyl-3a,4,7,7a-tetrahydro-1H-isoindole-1,3(2H)-dione]
[2]; [7]
  IC50: 38600 ± 4900 nM
other
  melting point: 163 to 164 °C

## C=C(C)C1C(=O)N(c2cc(OC)c(OC)c(OC)c2)C1c1ccc([N+](=O)[O-])cc1 (stereo not drawn) [9a, 4-(4-Nitrophenyl)-1-(3,4,5-trimethoxyphenyl)-3-(prop-1-en-2-yl)azetidin-2-one]
[2]; [6]
  IC50: 4960 ± 690 nM
other
  melting point: 129 to 130 °C

## C=C/C=C/C1C(=O)N(c2cc(OC)c(OC)c(OC)c2)C1c1cccc2ccccc12 (stereo not drawn) [11m, (E)-3-(Buta-1,3-dien-1-yl)-4-(naphthalen-1-yl)-1-(3,4,5-trimethoxyphenyl)azetidin-2-one]
[2]; [9]
  IC50: 576 ± 100 nM
other
  melting point: 113 to 114 °C

## C=C(C)C1C(=O)N(c2ccc(OC)cc2)C1c1ccccc1 (stereo not drawn) [9w, 1-(4-Methoxyphenyl)-4-phenyl-3-(prop-1-en-2-yl)azetidin-2-one]
[2]; [6]
  IC50: 33 ± 5 nM
other
  melting point: 111 to 113 °C

## COC(=O)C1=C(C(=O)OC)C(C2C(=O)N(c3cc(OC)c(OC)c(OC)c3)C2c2cccc3ccccc23)CC=C1 (stereo not drawn) [22b, Dimethyl-6-(1-(3,4,5-trimethoxyphenyl)-2-(naphthalen-1-yl)-4-oxoazetidin-3-yl)cyclohexa-1,3-diene-1,2-dicarboxylate]
[1]
  IC50: 9690 ± 1020 nM

## C=CCC1C(=O)N(c2cc(OC)c(OC)c(OC)c2)C1c1cccc2ccccc12 (stereo not drawn) [10m, 3-Allyl-4-naphthalen-1-yl-1-(3,4,5-trimethoxyphenyl)azetidin-2-one]
[2]; [10]
  IC50: 210 ± 26 nM
other
  melting point: 139 to 140 °C
[5]
  IC50: 656 ± 130 nM

## C=C/C=C/C1C(=O)N(c2cc(OC)c(OC)c(OC)c2)C1c1ccc(F)cc1 (stereo not drawn) [11d, (E)-3-(Buta-1,3-dien-1-yl)-4-(4-fluorophenyl)-1-(3,4,5-trimethoxyphenyl)azetidin-2-one]
[2]; [9]
  IC50: 3210 ± 620 nM
other
  melting point: 137 to 139 °C

## C=C/C=C/C1C(=O)N(c2cc(OC)c(OC)c(OC)c2)C1c1ccc(OCC)cc1 (stereo not drawn) [11i, (E)-3-(Buta-1,3-dien-1-yl)-4-(4-ethoxyphenyl)-1-(3,4,5-trimethoxyphenyl)-azetidin-2-one]
[2]; [9]
  IC50: 261 ± 50 nM
other
  melting point: 73 to 75 °C

## COc1ccc(C2C(CC=Cc3ccccc3)C(=O)N2c2cc(OC)c(OC)c(OC)c2)cc1 (stereo not drawn) [17a, 3-Cinnamyl-4-(4-methoxyphenyl)-1-(3,4,5-trimethoxyphenyl)azetidin-2-one]
[2]; [7]
  IC50: 332 ± 40 nM
other
  melting point: 103 to 104 °C

## C=C(C)C1C(=O)N(c2cc(OC)c(OC)c(OC)c2)C1c1ccc(OCC)cc1 (stereo not drawn) [9i, 4-(4-Ethoxyphenyl)-1-(3,4,5-trimethoxyphenyl)-3-(prop-1-en-2-yl)azetidin-2-one]
[2]; MCF7, MCF-7
  IC50: 81 nM
other
  melting point: 100 to 102 °C
[5]
  IC50: 171 ± 11 nM
